Where “and” joins values, the source holds several entries; their conditions need not be identical. Identical values can stand only once. Toxic doses and inconclusive results are not listed.

This assay deals with P388 leukemia ip, CD2F1 mice, survival T/C. Description: NCI In Vivo Anticancer Drug Screen. Data for tumor model P388 Leukemia (intraperitoneal) in CD2F1 (CDF1) mice. The note with it: endpoint: median survival time, higher = longer survival. Here is the method: The antitumor activity of compounds was measured in mice bearing transplantable tumors. Survival or tumor size were measured and the results are expressed as the measurement made in the treated group (T) divided by the measurement made in the vehicle treated control group (C). The tumor model used in this assay is P388 Leukemia (intraperitoneal) in CD2F1 (CDF1) mice

The mark [1] stands for this setting: dose: 100.0 mg/kg/injection, schedule: Q01DX001 (ip), vehicle: saline with Tween-80.
Setting [2] is: dose: 200.0 mg/kg/injection, schedule: Q01DX001 (ip), vehicle: saline with Tween-80.
Where [3] appears, read: dose: 100.0 mg/kg/injection, schedule: Q01DX001 (ip), vehicle: Klucel (hydroxypropylcellulose) (HPC).
The mark [4] stands for this setting: dose: 200.0 mg/kg/injection, schedule: Q01DX001 (ip), vehicle: Klucel (hydroxypropylcellulose) (HPC).
The mark [5] stands for this setting: dose: 400.0 mg/kg/injection, schedule: Q01DX001 (ip), vehicle: Klucel (hydroxypropylcellulose) (HPC).
[6] abbreviates: dose: 60.0 mg/kg/injection, schedule: Q01DX005 (ip), vehicle: saline with Tween-80.
The mark [7] stands for this setting: dose: 120.0 mg/kg/injection, schedule: Q01DX005 (ip), vehicle: saline with Tween-80.
Where [8] appears, read: dose: 240.0 mg/kg/injection, schedule: Q01DX005 (ip), vehicle: saline with Tween-80.

With `C1CC[N-]CC1.C1CC[N-]CC1.C1CC[N-]CC1.C1CC[N-]CC1.[Pt+4]`, the T/C by setting is: (dose: 2.0 mg/kg/injection, schedule: Q01DX009 (ip), vehicle: saline) 95 % of control; (dose: 4.0 mg/kg/injection, schedule: Q01DX009 (ip), vehicle: saline) 89 % of control; (dose: 8.0 mg/kg/injection, schedule: Q01DX009 (ip), vehicle: saline) 93 % of control.

As to `CCCCCCCCCCCCCCCC(=O)Nc1cccc2c[n+](CC(=O)c3ccc(NC(=O)CCC(=O)OC)cc3)ccc12`, the T/C was 90 % of control under setting [1]; 86 % of control under setting [2]; 109 % of control (dose: 400.0 mg/kg/injection, schedule: Q01DX001 (ip), vehicle: saline with Tween-80).

`Cc1ccc(C(=O)C(CN(C)C)CN(C)C)cc1`: the T/C was 101 % of control and 90 % of control (dose: 3.12 mg/kg/injection, schedule: Q01DX009 (ip), vehicle: saline); 112 % of control (dose: 3.13 mg/kg/injection, schedule: Q01DX009 (ip), vehicle: saline); 110 % of control [middle of 4 runs] (dose: 6.25 mg/kg/injection, schedule: Q01DX009 (ip), vehicle: saline); 107 % of control and 118 % of control (dose: 12.5 mg/kg/injection, schedule: Q01DX009 (ip), vehicle: saline).

`COc1ccc(Cn2nnc(C(N)=O)c2NC=O)cc1`: the T/C reads like this: under setting [3], 95 % of control; under setting [4], 100 % of control; under setting [5], 100 % of control.

In the case of `CCCCN1CN(CCCC)CN(C(=S)c2c(Cl)cccc2Cl)C1`, the T/C is 102 % of control (dose: 25.0 mg/kg/injection, schedule: Q01DX009 (ip), vehicle: saline with Tween-80); 102 % of control (dose: 50.0 mg/kg/injection, schedule: Q01DX009 (ip), vehicle: saline with Tween-80); 105 % of control (dose: 100.0 mg/kg/injection, schedule: Q01DX009 (ip), vehicle: saline with Tween-80).

`Cc1c2cc[n+](CCO)cc2c(C)c2c1[nH]c1ccc(O)cc12`: the T/C reads like this: (dose: 0.79 mg/kg/injection, schedule: Q04DX003 (ip), vehicle: saline) 155 % of control; (dose: 1.56 mg/kg/injection, schedule: Q04DX003 (ip), vehicle: saline) 165 % of control; (dose: 3.12 mg/kg/injection, schedule: Q04DX003 (ip), vehicle: saline) 165 % of control; (dose: 6.25 mg/kg/injection, schedule: Q04DX003 (ip), vehicle: saline) 155 % of control; (dose: 12.5 mg/kg/injection, schedule: Q04DX003 (ip), vehicle: saline) 100 % of control; (dose: 25.0 mg/kg/injection, schedule: Q04DX003 (ip), vehicle: saline) 92 % of control.

Consider `Cc1n[nH]c(=O)c(N)c1-c1cc(-c2ccccc2)n[nH]1`, for which the T/C reads like this: under setting [6], 91 % of control; under setting [7], 94 % of control; under setting [8], 93 % of control.

Take `O=C(Nc1ccc(Cl)cc1)Nc1nnc2nc(CC(=O)c3cccc([N+](=O)[O-])c3Cl)c(=O)[nH]n12`: the T/C is, setting by setting: under setting [6], 99 % of control; under setting [7], 101 % of control; under setting [8], 100 % of control.

With `CC1CC=CCC1C1OC(C)C(C)O1` (centres undefined), the T/C by setting is: (dose: 50.0 mg/kg/injection, schedule: Q01DX005 (ip), vehicle: saline with Tween-80) 110 % of control; (dose: 100.0 mg/kg/injection, schedule: Q01DX005 (ip), vehicle: saline with Tween-80) 106 % of control; (dose: 200.0 mg/kg/injection, schedule: Q01DX005 (ip), vehicle: saline with Tween-80) 109 % of control.

With `COC(=O)C(=O)C(C)C(=O)C(C)c1nc(NC(=O)Nc2ccc(Cl)cc2)n[nH]1` (centres undefined), the T/C reads like this: under setting [6], 101 % of control; under setting [7], 101 % of control; under setting [8], 100 % of control.

As for `COCCOCCOCCOCCOCCOCCOCCOCCOCCOCCOCCOCCOCCOCCOC(=O)CCn1cc(F)c(=O)[nH]c1=O`, the T/C runs as follows: (dose: 34.0 mg/kg/injection, schedule: Q04DX002 (ip), vehicle: saline) 97 % of control; (dose: 68.0 mg/kg/injection, schedule: Q04DX002 (ip), vehicle: saline) 111 % of control; (dose: 136.0 mg/kg/injection, schedule: Q04DX002 (ip), vehicle: saline) 102 % of control; (dose: 272.0 mg/kg/injection, schedule: Q04DX002 (ip), vehicle: saline) 100 % of control.

As to `COc1cccc2c1C(=O)c1c(O)c3c(c(O)c1C2=O)C[C@@](O)(C(C)=O)C[C@@H]3OC1CC(NC(=O)C(N)CCN)C(O)C(C)O1` (some centres undefined), the T/C (dose: 5.0 mg/kg/injection, schedule: Q04DX003 (ip), vehicle: water) was 96 % of control; the T/C (dose: 10.0 mg/kg/injection, schedule: Q04DX003 (ip), vehicle: water) was 94 % of control; the T/C (dose: 20.0 mg/kg/injection, schedule: Q04DX003 (ip), vehicle: water) was 99 % of control; the T/C (dose: 40.0 mg/kg/injection, schedule: Q04DX003 (ip), vehicle: water) is 105 % of control; the T/C (dose: 80.0 mg/kg/injection, schedule: Q04DX003 (ip), vehicle: water) is 118 % of control; the T/C (dose: 160.0 mg/kg/injection, schedule: Q04DX003 (ip), vehicle: distilled water + Tween-80) was 106 % of control. In addition, the T/C (dose: 320.0 mg/kg/injection, schedule: Q04DX003 (ip), vehicle: distilled water + Tween-80) was 105 % of control.

As for `Cc1cc2c(c(O)c1O)/C(=C/N=NC(N)=S)C(Cl)=N2`, the T/C reads like this: under setting [3], 101 % of control; under setting [4], 102 % of control; under setting [5], 100 % of control.

On to `CC1CC[N-]CC1.CC1CC[N-]CC1.CS(C)=O.[Cl][Rh]([Cl])[Cl]`, for which the T/C is 104 % of control (dose: 3.0 mg/kg/injection, schedule: Q01DX009 (ip), vehicle: saline with Tween-80); 104 % of control (dose: 3.0 mg/kg/injection, schedule: Q04DX003 (ip), vehicle: saline with Tween-80); 95 % of control (dose: 6.0 mg/kg/injection, schedule: Q01DX009 (ip), vehicle: saline with Tween-80); 100 % of control (dose: 6.0 mg/kg/injection, schedule: Q04DX003 (ip), vehicle: saline with Tween-80); 95 % of control (dose: 12.0 mg/kg/injection, schedule: Q01DX009 (ip), vehicle: saline with Tween-80); 109 % of control (dose: 12.0 mg/kg/injection, schedule: Q04DX003 (ip), vehicle: saline with Tween-80).

`COC(=O)CC(c1ccccc1)C1(c2ccc3c(c2)OCO3)SCCCS1` (centres undefined): the T/C under setting [1] is 92 % of control and the T/C under setting [2] is 90 % of control.

As for `C1CN(C[C@H]2CO[C@H](CN3CCOCC3)CO2)CCO1`, the T/C (dose: 50.0 mg/kg/injection, schedule: Q01DX005 (ip), vehicle: saline) was 91 % of control; the T/C (dose: 100.0 mg/kg/injection, schedule: Q01DX005 (ip), vehicle: saline) was 106 % of control; the T/C (dose: 200.0 mg/kg/injection, schedule: Q01DX005 (ip), vehicle: saline) is 110 % of control.

Consider `CCOC(=O)Nc1cc2c(c(N)n1)N=C(c1ccccc1)CO2`, for which the T/C (dose: 25.0 mg/kg/injection, schedule: Q01DX005 (ip), vehicle: saline with Tween-80) is 102 % of control and 112 % of control.

With `Cc1cc(NCCCCCCNc2cc(C)[n+](C)c3c(Cl)cccc23)c2cccc(Cl)c2[n+]1C`, the T/C (dose: 3.12 mg/kg/injection, schedule: Q01DX005 (ip), vehicle: suspension in saline) was 108 % of control; the T/C (dose: 6.25 mg/kg/injection, schedule: Q01DX005 (ip), vehicle: suspension in saline) is 99 % of control; the T/C (dose: 12.5 mg/kg/injection, schedule: Q01DX005 (ip), vehicle: suspension in saline) was 108 % of control.

Regarding `COc1ccc(OC)c(C(O)P(=O)(c2ccccc2)c2ccccc2)c1` (centres undefined), the T/C was 98 % of control (dose: 50.0 mg/kg/injection, schedule: Q01DX009 (ip), vehicle: Klucel (hydroxypropylcellulose) (HPC)); 93 % of control (dose: 100.0 mg/kg/injection, schedule: Q01DX009 (ip), vehicle: Klucel (hydroxypropylcellulose) (HPC)); 93 % of control (dose: 200.0 mg/kg/injection, schedule: Q01DX009 (ip), vehicle: Klucel (hydroxypropylcellulose) (HPC)).

For the compound `C[Si](C)(C)CC[Si]12OCCN(C3CCCCC3O1)C1CCCCC1O2` (centres undefined), the T/C (dose: 50.0 mg/kg/injection, schedule: Q01DX005 (ip), vehicle: Klucel (hydroxypropylcellulose) (HPC)) is 94 % of control; the T/C (dose: 100.0 mg/kg/injection, schedule: Q01DX005 (ip), vehicle: Klucel (hydroxypropylcellulose) (HPC)) is 104 % of control; the T/C (dose: 200.0 mg/kg/injection, schedule: Q01DX005 (ip), vehicle: Klucel (hydroxypropylcellulose) (HPC)) was 105 % of control.

(Values after PubChem BioAssay AID330 (DTP/NCI, 2004).)
